Assay results: paper PMC5369539 (Chemical Science, 2016)
Bridge positions count the residues as written; N and C are the ends. Square brackets hold non-standard residues; d marks the D form. Peptide text beside a SMILES is read from it. * marks the point of attachment. X1 = CC[C@H](C)CCCCC(=O)*; Dab = NCC[C@H](N)C(=O)O

Columns and labels:
E. faecalis (OG1X) = experiment: Minimum inhibitory concentration; type: cell-based; conditions: text summary of Table S1
S. aureus (ATCC6538) = experiment: Minimum inhibitory concentration; type: cell-based; conditions: text summary of Table S1

Row | SMILES | activity against E. faecalis (in words) (E. faecalis (OG1X)) | activity against S. aureus (in words) (S. aureus (ATCC6538))
1 | CC[C@H](C)CCCCC(=O)N[C@@H](CCN)C(=O)N[C@H](C(=O)N[C@@H](CCN)C(=O)N[C@H]1CCNC(=O)[C@H]([C@@H](C)O)NC(=O)[C@H](CCN)NC(=O)[C@H](CCN)NC(=O)[C@H](CC(C)C)NC(=O)[C@@H](Cc2ccccc2)NC(=O)[C@H](CCN)NC1=O)[C@@H](C)O [polymyxin B] (X1-[Dab]T[Dab][Dab][Dab][dF]L[Dab][Dab]T; lactam 4-C (inferred); N-terminus assumed) | tolerant | –
2 | CCCCCCCCCC(=O)N[C@@H](Cc1c[nH]c2ccccc12)C(=O)N[C@H](CC(N)=O)C(=O)N[C@@H](CC(=O)O)C(=O)N[C@@H]1C(=O)NCC(=O)N[C@@H](CCCN)C(=O)N[C@@H](CC(=O)O)C(=O)N[C@H](C)C(=O)N[C@@H](CC(=O)O)C(=O)NCC(=O)N[C@H](CO)C(=O)N[C@@H]([C@H](C)CC(=O)O)C(=O)N[C@@H](CC(=O)c2ccccc2N)C(=O)O[C@@H]1C [daptomycin] | tolerant | appreciable activity
